Data on nine compounds can be found in PubChem BioAssay (NCI).

“And” between values parts separate entries of the source, which are not always exact repeats. Equal values may be shown once.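 Values below derive from 48-hour exposures of cells grown in 96-well plates, with endpoints linearly interpolated between the two concentrations bracketing the appropriate inhibition level. Abbreviation: GI50, concentration required for 50% inhibition of growth. TGI marks complete inhibition of growth.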 A value given as a limit tells only on which side of the number the result lay.

Some test systems named below: HCT-15 colon; SK-OV-3 ovarian; HOP-92 NSCLC; HOP-62 NSCLC; SF-295 CNS; SNB-19 CNS; SF-539 CNS; COLO 205 colon; A498 renal; SK-MEL-28 melanoma.
What all share (assay): NCI-60 cell line screen, 48 h

As to `Cc1c2cc[n+](Cc3ccc(I)cc3)cc2c(C)c2c1[nH]c1ccccc12`, the TGI is greater than 25 µM in the assay with HCT-15 colon; greater than 13.5 µM in the assay with SK-OV-3 ovarian; 3.3 µM with HOP-92 NSCLC; greater than 21.7 µM with HOP-62 NSCLC; greater than 9.98 µM with SF-295 CNS; 9.55 µM with SNB-19 CNS. Also, the TGI in the assay on SF-539 CNS was greater than 15.8 µM; with COLO 205 colon it was 6.16 µM; in the assay on A498 renal it was greater than 25 µM; in the assay with SK-MEL-28 melanoma, 11.7 µM.

As for `N#C[S-].[La+3].c1ccc(-c2ccccn2)nc1.c1ccc(-c2ccccn2)nc1.c1ccc(-c2ccccn2)nc1`, the GI50 was 7.07 µM with HCT-15 colon; 31.7 µM in the assay with SK-OV-3 ovarian; 12.3 µM in the assay with SF-295 CNS; 54.6 µM in the assay with SNB-19 CNS; 33.2 µM in the assay with SF-539 CNS; 45.5 µM with COLO 205 colon. Besides, the GI50 with SK-MEL-28 melanoma was 30.9 µM. Moreover, the TGI in the assay with HCT-15 colon was greater than 100 µM; with SK-OV-3 ovarian, 99.6 µM; in the assay on SF-295 CNS, 71.3 µM; with SNB-19 CNS, greater than 100 µM; in the assay on SF-539 CNS it was greater than 100 µM; with COLO 205 colon, greater than 100 µM. In addition, the TGI in the assay with SK-MEL-28 melanoma is greater than 100 µM.

For the compound `O=c1cc(-c2cccc(OC(F)(F)F)c2)[nH]c2ccc(N3CCCC3)cc12`, the TGI in the assay with HOP-92 NSCLC is greater than 100 µM; in the assay with SF-295 CNS it was 0.00048 µM; with SNB-19 CNS, 11.9 µM; with SF-539 CNS, 0.000621 µM; with COLO 205 colon it was 0.0204 µM and 0.0319 µM.

Regarding `[CH3][Sn]([CH3])([CH3])[S]C(=S)N1CCOCC1`, the GI50 in the assay with HCT-15 colon is 1.81 µM; with SK-OV-3 ovarian it was 9.81 µM; in the assay with HOP-92 NSCLC, 1.84 µM; in the assay on HOP-62 NSCLC, 2.28 µM; in the assay on SF-295 CNS, 3.51 µM; with COLO 205 colon, 0.0786 µM. Moreover, the GI50 in the assay with A498 renal is 15.3 µM; in the assay with SK-MEL-28 melanoma it was 3.49 µM. Besides, the TGI in the assay with HCT-15 colon is greater than 100 µM; with SK-OV-3 ovarian, 29.3 µM; with HOP-92 NSCLC, 6.48 µM; in the assay on HOP-62 NSCLC, 4.86 µM; in the assay on SF-295 CNS, 13.2 µM; in the assay with COLO 205 colon, 0.432 µM. Besides, the TGI is 73.8 µM with A498 renal and 33.6 µM in the assay with SK-MEL-28 melanoma.

Regarding `CCCCCCCCCCCC1N=C(N)N=C(N)N1c1cccc(Br)c1` (stereo not drawn), the GI50 was 5.2 µM in the assay on HCT-15 colon; 1.92 µM in the assay on SK-OV-3 ovarian; 1.51 µM in the assay with HOP-92 NSCLC; 1.16 µM with SF-295 CNS; 2.65 µM in the assay on A498 renal. Moreover, the TGI came to 26.3 µM with HCT-15 colon; 4.28 µM in the assay on SK-OV-3 ovarian; 4.34 µM in the assay on HOP-92 NSCLC; 19.4 µM with SF-295 CNS; 11.3 µM in the assay on A498 renal.

As to `CC1OC(OC2C(O)CC(OC3C(O)CC(OC4CCC5(C)C(CCC6C5CCC5(C)C(C7=CC(=O)OC7)C(O)CC65O)C4)OC3C)OC2C)CC(O)C1O` (stereo not drawn), the TGI with HCT-15 colon turned out to be 1.58 µM; with SK-OV-3 ovarian, 1.31 µM; with HOP-92 NSCLC it was 1.85 µM; in the assay with HOP-62 NSCLC, 2.66 µM; with SF-295 CNS it was 0.809 µM; in the assay with SNB-19 CNS, 3.49 µM. For the same compound, the TGI in the assay with SF-539 CNS was 0.217 µM; in the assay on COLO 205 colon, 0.844 µM; in the assay with A498 renal, 0.908 µM; in the assay on SK-MEL-28 melanoma, 5.86 µM.

For the compound `O=C(Nc1cccc(-n2ccc3c(NC(=O)c4ccccc4)ncnc32)c1)Nc1ccc(Cl)c(C(F)(F)F)c1`, the GI50 in the assay on HCT-15 colon is 2.51 µM; with HOP-92 NSCLC, 0.556 µM; in the assay on HOP-62 NSCLC it was 5.62 µM; in the assay on SF-295 CNS it was 1.43 µM; in the assay with SNB-19 CNS, 4.41 µM; in the assay with SF-539 CNS, 1.98 µM. Moreover, the GI50 in the assay on COLO 205 colon was 2.67 µM; in the assay with A498 renal, 2.65 µM; with SK-MEL-28 melanoma, 2.75 µM. Moreover, the TGI is 10.2 µM with HCT-15 colon; 4.31 µM with HOP-92 NSCLC; 11.8 µM with HOP-62 NSCLC; 7.24 µM in the assay on SF-295 CNS; 10.8 µM in the assay with SNB-19 CNS; 9.91 µM in the assay on SF-539 CNS. Further, the TGI with COLO 205 colon was 8.36 µM; in the assay with A498 renal it was 9.51 µM; in the assay with SK-MEL-28 melanoma, 9.44 µM.

For the compound `Brc1ccc2[nH]c3c(C4=NCCC4)nccc3c2c1`, the TGI in the assay on HCT-15 colon is greater than 69.2 µM; in the assay with SK-OV-3 ovarian, greater than 100 µM; in the assay on HOP-92 NSCLC it was greater than 74.2 µM; in the assay on HOP-62 NSCLC, greater than 42.2 µM; in the assay on SF-295 CNS it was greater than 36.7 µM; in the assay with SNB-19 CNS, greater than 100 µM. For the same compound, the TGI is greater than 25.4 µM in the assay on SF-539 CNS, greater than 59.6 µM in the assay with COLO 205 colon, greater than 49.2 µM with A498 renal and greater than 100 µM in the assay on SK-MEL-28 melanoma.

In the case of `Oc1c(Br)cc2c(c1Br)-c1c(c(O)c3c4c1=NCCC=4C=N3)NCC2`, the TGI in the assay on HCT-15 colon is 30.6 µM; in the assay with SK-OV-3 ovarian, 54.8 µM; in the assay with HOP-92 NSCLC, 35.4 µM; with HOP-62 NSCLC, greater than 66.3 µM; in the assay with SF-295 CNS, 19.5 µM; in the assay on SNB-19 CNS it was 35.7 µM. Moreover, the TGI in the assay with SF-539 CNS was determined as 26.5 µM; in the assay with COLO 205 colon it was 11.7 µM; in the assay with A498 renal, 45.7 µM; with SK-MEL-28 melanoma it was 32.5 µM.
